target: S. pneumoniae Topoisomerase IV ATPase (ParE) (Streptococcus pneumoniae serotype 4, UniProt Q59961); assay: S. pneumoniae Topoisomerase IV ATPase inhibition; type: biochemical; details: values marked * are an average of two or more data points, read-out: % Inh (13 μM) of S. pneumoniae Topoisomerase IV ATPase
Method in brief: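 Phosphate release by ParE ATPase from S. pneumoniae read colorimetrically (malachite green, 650 nm), enzyme 1.25 nM, ATP 160 μM, salmon sperm DNA present, buffer 20 mM Tris pH 8.0 with 8 mM MgCl2. IC50 over 10 compound concentrations, EDTA (20 μM) and DMSO controls defining inhibition range.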

Chain of S. pneumoniae Topoisomerase IV ATPase (ParE) (Q59961 whole entry): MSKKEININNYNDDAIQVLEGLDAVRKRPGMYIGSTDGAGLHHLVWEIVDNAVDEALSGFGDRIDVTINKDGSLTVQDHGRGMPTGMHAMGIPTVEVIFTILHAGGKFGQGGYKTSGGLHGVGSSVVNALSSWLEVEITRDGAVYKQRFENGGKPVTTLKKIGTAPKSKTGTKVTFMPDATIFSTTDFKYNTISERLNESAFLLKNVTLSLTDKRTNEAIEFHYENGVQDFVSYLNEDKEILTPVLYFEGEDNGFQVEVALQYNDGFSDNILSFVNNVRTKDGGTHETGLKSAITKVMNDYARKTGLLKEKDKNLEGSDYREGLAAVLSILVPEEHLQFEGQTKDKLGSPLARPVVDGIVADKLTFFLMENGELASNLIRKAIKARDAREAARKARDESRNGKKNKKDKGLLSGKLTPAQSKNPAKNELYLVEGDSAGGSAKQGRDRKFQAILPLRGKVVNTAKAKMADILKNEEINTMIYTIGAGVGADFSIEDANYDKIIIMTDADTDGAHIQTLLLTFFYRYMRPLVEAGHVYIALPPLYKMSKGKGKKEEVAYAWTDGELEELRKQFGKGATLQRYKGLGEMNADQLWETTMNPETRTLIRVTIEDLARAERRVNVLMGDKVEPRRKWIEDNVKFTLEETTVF

| Compound | inhibition at 13 µM |
| --- | --- |
| COc1cc(Nc2ncc(-c3cnc(OC)c(-c4n[nH]c(=O)o4)c3)c(-n3ccc(C(F)(F)F)n3)n2)cc(OC)c1 [Example 807, 5-(5-{2-[(3,5-dimethoxyphenyl)amino]-4-[3-(trifluoromethyl)-1H-pyrazol-1-yl]pyrimidin-5-yl}-2-methoxypyridin-3-yl)-1,3,4-oxadiazol-2(3H)-one] | 100% |
| CNC(=O)c1cc(-c2cnc(Nc3cc(OC)cc(OC)c3)nc2-n2nc(C(F)(F)F)cc2C)cnc1OC [Example 808, 5-{2-[(3,5-dimethoxyphenyl)amino]-4-[5-methyl-3-(trifluoromethyl)-1H-pyrazol-1-yl]pyrimidin-5-yl}-2-methoxy-N-methylpyridine-3-carboxamide] | 100% |
| CNC(=O)c1cc(-c2cnc(Nc3cc(OC)cc(OC)c3)nc2-n2ccc(C(F)(F)F)n2)cnc1OC [Example 809, 5-{2-[(3,5-dimethoxyphenyl)amino]-4-[3-(trifluoromethyl)-1H-pyrazol-1-yl]pyrimidin-5-yl}-2-methoxy-N-methylpyridine-3-carboxamide] | 100% |
| CONC(=O)c1cc(-c2cnc(Nc3cc(OC)cc(OC)c3)nc2-n2nc(C(F)(F)F)cc2C)cnc1OC [Example 810, 5-{2-[(3,5-dimethoxyphenyl)amino]-4-[5-methyl-3-(trifluoromethyl)-1H-pyrazol-1-yl]pyrimidin-5-yl}-N,2-dimethoxypyridine-3-carboxamide] | 100% |
| CONC(=O)c1cc(-c2cnc(Nc3cc(OC)cc(OC)c3)nc2-n2ccc(C(F)(F)F)n2)cnc1OC [Example 811, 5-{2-[(3,5-dimethoxyphenyl)amino]-4-[3-(trifluoromethyl)-1H-pyrazol-1-yl]pyrimidin-5-yl}-N,2-dimethoxypyridine-3-carboxamide] | 100% |
| COc1cc(Nc2ncc(-c3cnc(OC)c(C(=O)NCCS(C)(=O)=O)c3)c(-n3nc(C(F)(F)F)cc3C)n2)cc(OC)c1 [Example 812, 5-{2-[(3,5-dimethoxyphenyl)amino]-4-[5-methyl-3-(trifluoromethyl)-1H-pyrazol-1-yl]pyrimidin-5-yl}-2-methoxy-N-[2-(methylsulfonyl)ethyl]pyridine-3-carboxamide] | 100% |
| COc1cc(Nc2ncc(-c3cnc(OC)c(C(=O)NCCS(C)(=O)=O)c3)c(-n3ccc(C(F)(F)F)n3)n2)cc(OC)c1 [Example 813, 5-{2-[(3,5-dimethoxyphenyl)amino]-4-[3-(trifluoromethyl)-1H-pyrazol-1-yl]pyrimidin-5-yl}-2-methoxy-N-[2-(methylsulfonyl)ethyl]pyridine-3-carboxamide] | 100% |
| CCS(=O)(=O)NC(=O)c1cc(-c2cnc(Nc3cc(OC)cc(OC)c3)nc2-n2ccc(C(F)(F)F)n2)cnc1OC [Example 814, 5-{2-[(3,5-dimethoxyphenyl)amino]-4-[3-(trifluoromethyl)-1H-pyrazol-1-yl]pyrimidin-5-yl}-N-(ethylsulfonyl)-2-methoxypyridine-3-carboxamide] | 100% |
| CCS(=O)(=O)NC(=O)c1cc(-c2cnc(Nc3cc(OC)cc(OC)c3)nc2-n2nc(C(F)(F)F)cc2C)cnc1OC [Example 815, 5-{2-[(3,5-dimethoxyphenyl)amino]-4-[5-methyl-3-(trifluoromethyl)-1H-pyrazol-1-yl]pyrimidin-5-yl}-N-(ethylsulfonyl)-2-methoxypyridine-3-carboxamide] | 100% |
| CCCS(=O)(=O)NC(=O)c1cc(-c2cnc(Nc3cc(OC)cc(OC)c3)nc2-n2ccc(C(F)(F)F)n2)cnc1OC [Example 816, 5-{2-[(3,5-dimethoxyphenyl)amino]-4-[3-(trifluoromethyl)-1H-pyrazol-1-yl]pyrimidin-5-yl}-2-methoxy-N-(propylsulfonyl)pyridine-3-carboxamide] | 100% |
| CCCS(=O)(=O)NC(=O)c1cc(-c2cnc(Nc3cc(OC)cc(OC)c3)nc2-n2nc(C(F)(F)F)cc2C)cnc1OC [Example 817, 5-{2-[(3,5-dimethoxyphenyl)amino]-4-[5-methyl-3-(trifluoromethyl)-1H-pyrazol-1-yl]pyrimidin-5-yl}-2-methoxy-N-(propylsulfonyl)pyridine-3-carboxamide] | 100% |
| COc1cc(Nc2ncc(-c3cnc(OC)c(C(=O)NS(=O)(=O)C(C)C)c3)c(-n3ccc(C(F)(F)F)n3)n2)cc(OC)c1 [Example 818, 5-{2-[(3,5-dimethoxyphenyl)amino]-4-[3-(trifluoromethyl)-1H-pyrazol-1-yl]pyrimidin-5-yl}-2-methoxy-N-(propan-2-ylsulfonyl)pyridine-3-carboxamide] | 100% |
| COc1cc(Nc2ncc(-c3cnc(OC)c(C(=O)NS(=O)(=O)C(C)C)c3)c(-n3nc(C(F)(F)F)cc3C)n2)cc(OC)c1 [Example 819, 5-{2-[(3,5-dimethoxyphenyl)amino]-4-[5-methyl-3-(trifluoromethyl)-1H-pyrazol-1-yl]pyrimidin-5-yl}-2-methoxy-N-(propan-2-ylsulfonyl)pyridine-3-carboxamide] | 100% |
| COc1cc(Nc2ncc(-c3cnc(OC)c(C(=O)NS(=O)(=O)CCCN4CCOCC4)c3)c(-n3ccc(C(F)(F)F)n3)n2)cc(OC)c1 [Example 820, 5-{2-[(3,5-dimethoxyphenyl)amino]-4-[3-(trifluoromethyl)-1H-pyrazol-1-yl]pyrimidin-5-yl}-2-methoxy-N-{[3-(morpholin-4-yl)propyl]sulfonyl}pyridine-3-carboxamide] | 100% |
| COc1cc(Nc2ncc(-c3cnc(OC)c(C(=O)NS(=O)(=O)CCCN4CCOCC4)c3)c(-n3nc(C(F)(F)F)cc3C)n2)cc(OC)c1 [Example 821, 5-{2-[(3,5-dimethoxyphenyl)amino]-4-[5-methyl-3-(trifluoromethyl)-1H-pyrazol-1-yl]pyrimidin-5-yl}-2-methoxy-N-{[3-(morpholin-4-yl)propyl]sulfonyl}pyridine-3-carboxamide] | 100% |
| CCS(=O)(=O)NC(=O)c1cc(-c2cnc(Nc3cc(C)cc(C)c3)nc2-n2ccc(C(F)(F)F)n2)cnc1OC [Example 822, 5-{2-[(3,5-dimethylphenyl)amino]-4-[3-(trifluoromethyl)-1H-pyrazol-1-yl]pyrimidin-5-yl}-N-(ethylsulfonyl)-2-methoxypyridine-3-carboxamide] | 100% |
| CCS(=O)(=O)NC(=O)c1cc(-c2cnc(Nc3cc(C)cc(C)c3)nc2-n2nc(C(F)(F)F)cc2C)cnc1OC [Example 823] | 100% |
| CCCS(=O)(=O)NC(=O)c1cc(-c2cnc(Nc3cc(C)cc(C)c3)nc2-n2ccc(C(F)(F)F)n2)cnc1OC [Example 824, 5-{2-[(3,5-dimethylphenyl)amino]-4-[3-(trifluoromethyl)-1H-pyrazol-1-yl]pyrimidin-5-yl}-2-methoxy-N-(propylsulfonyl)pyridine-3-carboxamide] | 100% |
| CCCS(=O)(=O)NC(=O)c1cc(-c2cnc(Nc3cc(C)cc(C)c3)nc2-n2nc(C(F)(F)F)cc2C)cnc1OC [Example 825, 5-{2-[(3,5-dimethylphenyl)amino]-4-[5-methyl-3-(trifluoromethyl)-1H-pyrazol-1-yl]pyrimidin-5-yl}-2-methoxy-N-(propylsulfonyl)pyridine-3-carboxamide] | 100% |

Source: patent US20100137313A1 (ASTRAZENECA AB, priority 2008, published 2010)
